These results are taken from patent EP3095787A1, “[…] ACTIVE COMPOUNDS AS DAG-LIPASE INHIBITORS” (Universiteit Leiden, priority 2015, dated 2016).

In general, Ki refers to the equilibrium dissociation constant of an inhibitor or competing ligand from its target.

The target of this assay is T1, recombinant human MAGL (Homo sapiens, UniProt Q99685).
T1 construct: expressed in transfected cells; membranes overexpressing MAGL
T1 sequence (Q99685 1-303): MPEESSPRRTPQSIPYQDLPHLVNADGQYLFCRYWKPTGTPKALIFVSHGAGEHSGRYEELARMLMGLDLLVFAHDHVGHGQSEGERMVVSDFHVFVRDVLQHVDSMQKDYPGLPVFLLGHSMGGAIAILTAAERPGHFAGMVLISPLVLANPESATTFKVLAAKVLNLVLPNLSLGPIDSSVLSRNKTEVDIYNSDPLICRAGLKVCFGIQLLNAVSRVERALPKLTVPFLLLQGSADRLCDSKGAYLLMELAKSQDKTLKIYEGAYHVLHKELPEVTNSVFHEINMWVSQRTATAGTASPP
Briefly: MAGL assay (glycerol detection, 2-AG as substrate). The assay is classed as biochemical. From the text:
This methodology allows for a more accurate quantification avoiding band overlap (as observed with gel-based assay) and allows screening over a broader range of specified serine hydrolases. Equal isotopic labeling and detection of light and medium peptides from proteins targeted by both ABPs (Figure 2G) were validated. Next, to investigate the selectivity of inventive compound 25 in this chemoproteomic assay was set out. […] In addition, the inventors tested compound 25 in biochemical assays using recombinant human MAGL and in a cannabinoid CB1 receptor radioligand displacement assay. A significant interaction ([…]) with these proteins of the endocannabinoid system could not be found. The CB1 displacement assays were performed as described below.
MAGL assay was performed as described below. Standard assays were performed under similar conditions as for the glycerol detection besed DAGL-α activity assay , but at a final protein concentration of 1.5 µg/mL (0.3 µg MAGL-overexpressing membranes per well) and with 2-arachidonoylglycerol (2-AG) as the substrate. 2-AG was directly added from a stock solution in acetonitrile and no Triton X-100 was added. Fluorescence was measured in 5 min intervals for 60 min. Final assay concentrations: 0.2 U/mL GK, GPO and HRP, 0.125 mM ATP, 10 µM Amplifu™Red, 25 µM 2-AG, 5% DMSO, 0.5% ACN in a total volume of 200 µL.

SMILES strings stand for the structures.

`Cc1ccc(-c2cnc3nc(C(=O)CCCCCc4ccccc4)oc3c2)cc1` [Compound 25, 1-(6-(p-Tolyl)oxazolo[4,5-b]pyridin-2-yl)-6-phenylhexan-1-one]: the Ki was above 10 µM.
